Test results reported in PubChem BioAssay AID2060500 (Molecular Pharmacology Branch, DTP, NCI, 2025).

Test system: 596521-263-R-J1-PDC complex spheroids, viability % of control
Experiment: Anticancer human tumor 596521-263-R-J1-PDC patient-derived soft tissue sarcoma cell line growth inhibition [GQUAD]
Settings: for IC50: curve of first compound; for viability, T/C: stronger effect = lower value
Outline: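 Viability of tumor cells grown as complex spheroids with endothelial and stromal cells, exposed to drug combinations. Top concentration at or near clinical Cmax (else 10 microM), diluted in half-log increments.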

[1] = second compound 0.0316 µM, first compound 0.0316 µM
[2] = second compound 0.0316 µM, first compound 0.1 µM
[3] = second compound 0.0316 µM, first compound 0.316 µM
[4] = second compound 0.0316 µM, first compound 1 µM
[5] = second compound 0.0316 µM, first compound 3.16 µM
[6] = second compound 0.0316 µM, first compound 10 µM
[7] = second compound 0.1 µM, first compound 0.0316 µM
[8] = second compound 0.1 µM, first compound 0.1 µM
[9] = second compound 0.1 µM, first compound 0.316 µM
[10] = second compound 0.1 µM, first compound 1 µM
[11] = second compound 0.1 µM, first compound 3.16 µM
[12] = second compound 0.1 µM, first compound 10 µM
[13] = second compound 0.316 µM, first compound 0.0316 µM
[14] = second compound 0.316 µM, first compound 0.1 µM
[15] = second compound 0.316 µM, first compound 0.316 µM
[16] = second compound 0.316 µM, first compound 1 µM
[17] = second compound 0.316 µM, first compound 3.16 µM
[18] = second compound 0.316 µM, first compound 10 µM
[19] = second compound 1 µM, first compound 0.0316 µM
[20] = second compound 1 µM, first compound 0.1 µM
[21] = second compound 1 µM, first compound 0.316 µM
[22] = second compound 1 µM, first compound 1 µM
[23] = second compound 1 µM, first compound 3.16 µM
[24] = second compound 1 µM, first compound 10 µM
[25] = second compound 3.16 µM, first compound 0.0316 µM
[26] = second compound 3.16 µM, first compound 0.1 µM
[27] = second compound 3.16 µM, first compound 0.316 µM
[28] = second compound 3.16 µM, first compound 1 µM
[29] = second compound 3.16 µM, first compound 3.16 µM
[30] = second compound 3.16 µM, first compound 10 µM
[31] = second compound 10 µM, first compound 0.0316 µM
[32] = second compound 10 µM, first compound 0.1 µM
[33] = second compound 10 µM, first compound 0.316 µM
[34] = second compound 10 µM, first compound 1 µM
[35] = second compound 10 µM, first compound 3.16 µM
[36] = second compound 10 µM, first compound 10 µM
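Note: spheroids exposed to drugs for 7 days before viability reading.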
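Throughout, for viability, T/C: 100% = DMSO vehicle control viability.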

C#Cc1c(F)ccc2cc(O)cc(-c3ncc4c(N5CC6CCC(C5)N6)nc(OCC56CCCN5CC(F)C6)nc4c3F)c12 (stereo unspecified) + CN(C)c1ccc(Nc2c3ccc(NC(=O)CCN4CCCC4)cc3nc3cc(NC(=O)CCN4CCCC4)ccc23)cc1
IC50 (second compound 0.0316 µM): > 10000 nM
IC50 (second compound 0.1 µM): > 10000 nM
IC50 (second compound 0.316 µM): > 10000 nM
IC50 (second compound 1 µM): > 10000 nM
IC50 (second compound 3.16 µM): > 10000 nM
IC50 (second compound 10 µM): 4150 nM
viability, T/C [1]: 105%
viability, T/C [2]: 95.1%
viability, T/C [3]: 98.7%
viability, T/C [4]: 115%
viability, T/C [5]: 106%
viability, T/C [6]: 99.2%
viability, T/C [7]: 95.5%
viability, T/C [8]: 96.1%
viability, T/C [9]: 107%
viability, T/C [10]: 108%
viability, T/C [11]: 112%
viability, T/C [12]: 92.3%
viability, T/C [13]: 103%
viability, T/C [14]: 106%
viability, T/C [15]: 98.5%
viability, T/C [16]: 97.3%
viability, T/C [17]: 104%
viability, T/C [18]: 83.1%
viability, T/C [19]: 100%
viability, T/C [20]: 111%
viability, T/C [21]: 92.5%
viability, T/C [22]: 88.6%
viability, T/C [23]: 104%
viability, T/C [24]: 96.8%
viability, T/C [25]: 87.4%
viability, T/C [26]: 87.2%
viability, T/C [27]: 98.7%
viability, T/C [28]: 90.5%
viability, T/C [29]: 86.6%
viability, T/C [30]: 78.3%
viability, T/C [31]: 64.6%
viability, T/C [32]: 66%
viability, T/C [33]: 70.7%
viability, T/C [34]: 64.2%
viability, T/C [35]: 54.2%
viability, T/C [36]: 36.8%

C=CCn1c(=O)c2cnc(Nc3ccc(N4CCN(C)CC4)cc3)nc2n1-c1cccc(C(C)(C)O)n1 + CN(C)c1ccc(Nc2c3ccc(NC(=O)CCN4CCCC4)cc3nc3cc(NC(=O)CCN4CCCC4)ccc23)cc1
IC50 (second compound 0.0316 µM): 644 nM
IC50 (second compound 0.1 µM): 544 nM
IC50 (second compound 0.316 µM): 484 nM
IC50 (second compound 1 µM): 760 nM
IC50 (second compound 3.16 µM): 757 nM
IC50 (second compound 10 µM): 308 nM
viability, T/C [1]: 90.4%
viability, T/C [2]: 81.2%
viability, T/C [3]: 53.5%
viability, T/C [4]: 44.9%
viability, T/C [5]: 42%
viability, T/C [6]: 27.7%
viability, T/C [7]: 105%
viability, T/C [8]: 82.5%
viability, T/C [9]: 53.9%
viability, T/C [10]: 44.1%
viability, T/C [11]: 45.3%
viability, T/C [12]: 32.9%
viability, T/C [13]: 90.5%
viability, T/C [14]: 90.4%
viability, T/C [15]: 54.5%
viability, T/C [16]: 47.3%
viability, T/C [17]: 46.1%
viability, T/C [18]: 32.1%
viability, T/C [19]: 86.4%
viability, T/C [20]: 79.6%
viability, T/C [21]: 57.1%
viability, T/C [22]: 47%
viability, T/C [23]: 49.4%
viability, T/C [24]: 34.7%
viability, T/C [25]: 100%
viability, T/C [26]: 84.8%
viability, T/C [27]: 63.9%
viability, T/C [28]: 44.4%
viability, T/C [29]: 38.2%
viability, T/C [30]: 31.2%
viability, T/C [31]: 66.9%
viability, T/C [32]: 54.9%
viability, T/C [33]: 47.3%
viability, T/C [34]: 44.7%
viability, T/C [35]: 34.2%
viability, T/C [36]: 20.7%

CC(C)(O)C1CCC(Nc2ccc3ncc(-c4cccc(C(F)(F)F)c4)n3n2)CC1 (stereo unspecified) + CN(C)c1ccc(Nc2c3ccc(NC(=O)CCN4CCCC4)cc3nc3cc(NC(=O)CCN4CCCC4)ccc23)cc1
IC50 (second compound 0.0316 µM): 1420 nM
IC50 (second compound 0.1 µM): 1370 nM
IC50 (second compound 0.316 µM): 1560 nM
IC50 (second compound 1 µM): 1720 nM
IC50 (second compound 3.16 µM): 1520 nM
IC50 (second compound 10 µM): 915 nM
viability, T/C [1]: 96.8%
viability, T/C [2]: 97.3%
viability, T/C [3]: 81.7%
viability, T/C [4]: 65%
viability, T/C [5]: 16.9%
viability, T/C [6]: 19.1%
viability, T/C [7]: 94.2%
viability, T/C [8]: 84.5%
viability, T/C [9]: 87%
viability, T/C [10]: 61%
viability, T/C [11]: 20.4%
viability, T/C [12]: 21.6%
viability, T/C [13]: 97%
viability, T/C [14]: 113%
viability, T/C [15]: 83.4%
viability, T/C [16]: 70.5%
viability, T/C [17]: 19.9%
viability, T/C [18]: 20.2%
viability, T/C [19]: 92.9%
viability, T/C [20]: 95.9%
viability, T/C [21]: 78.6%
viability, T/C [22]: 75.5%
viability, T/C [23]: 19.1%
viability, T/C [24]: 24%
viability, T/C [25]: 87.1%
viability, T/C [26]: 97.3%
viability, T/C [27]: 83.8%
viability, T/C [28]: 66.4%
viability, T/C [29]: 18.1%
viability, T/C [30]: 24.2%
viability, T/C [31]: 65.3%
viability, T/C [32]: 61.7%
viability, T/C [33]: 61.1%
viability, T/C [34]: 49%
viability, T/C [35]: 13.8%
viability, T/C [36]: 13.1%
